In patent US20240399000A1, “GADOLINIUM-BASED COMPOUND AND MRI CONTRAST AGENT COMPRISING SAME” (KYUNGPOOK NATIONAL UNIVERSITY INDUSTRY-ACADEMIC COOPERATION …, priority 2021, published 2024):

Key:
[1] = Measurement of relaxivity (r1, r2) in 3T MRI phantom; assay type: physicochemical; details: tertiary distilled water, 0.0625-1 mM, linear regression, in mM-1 s-1 (unit assumed)
Method: The relaxivity (r1, r2) of each of synthesized Gd-DO3A-Pca, and cyclic commercial contrast agents Gadovist® and Dotarem® as comparison groups material was measured. Specifically, a phantom was prepared by diluting the gadolinium complex in tertiary distilled water to five concentrations (0.0625, 0.125, 0.25, 0.5, 1 mM), and then T1 and T2 relaxation times were measured in 3T MRI. Thus, R (Relaxation rate=1/T) of each concentration was calculated and the relaxivity (r1, r2) result of the gadolinium complex was obtained through linear regression analysis (see FIG. 3) and shown in a following Table 1.

[2] = target: amyloid beta polymer (Homo sapiens, UniProt P05067); assay: Amyloid beta polymer targeting ability, MRI phantom experiment (9.4T); assay type: binding; details: incubated with amyloid beta polymer 37° C. 24 hours, washed, 9.4T MR
Sequence of amyloid beta polymer (P05067 672-713 limits assumed): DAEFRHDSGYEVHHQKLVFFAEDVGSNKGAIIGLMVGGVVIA
Method: (1) 221.5 uL of HFIP was added to 1 mg of amyloid beta at a concentration of 1 mM, followed by shaking for 1 hour at room temperature using a shaker to remove preaggregation. (2) The amyloid beta from which the preaggregation was removed was dried, and 221.5 uL of DMSO was added thereto to achieve a 1 mM concentration. Using a mixer and sonicator, a suspension thereof was prepared, and 878.5 uL of PBS (1×, pH 7.4) was added thereto to achieve a 0.2 mM concentration. (3) After incubating the suspension at 37° C. for 4 days using a shaker, the polymerized amyloid beta polymer was dispensed by 200 μL. Then, 20 μL of a solution in which each of Gd-DO3A-Pca and the commercial contrast agent (Gadovist®) was dissolved in PBS at 2 mM concentration was added thereto. The incubation was carried out thereon at 37° C. for 24 hours using a shaker. (4) After 24 hours has elapsed, centrifugation was performed thereon to remove the supernatant therefrom. The amyloid beta polymer was washed using PBS. 200 μL of a solution of PBS:DMSO=9:1 was added to a pellet to prepare an MRI phantom sample. As a control, a phantom sample obtained by incubating only the amyloid beta polymer was used. […]

| relaxivity r1 [1] | relaxivity r2 [1] | Structure (SMILES) | contrast enhancement / signal intensity of phantom vs phantom of only amyloid beta polymer [2] |
| --- | --- | --- | --- |
| 3.9 ± 0.1 | 4.8 ± 0.1 | O=C([O-])CN1CCN(CC(=O)[O-])CCN([C@H](CO)[C@H](O)CO)CCN(CC(=O)[O-])CC1.[Gd+3] (racemic) [Gadovist ®] | little difference in contrast enhancement effect |
| 3.4 ± 0.1 | 3.9 ± 0.2 | CNC[C@H](O)[C@@H](O)[C@H](O)[C@H](O)CO.O=C([O-])CN1CCN(CC(=O)[O-])CCN(CC(=O)O)CCN(CC(=O)[O-])CC1.[Gd+3] [Dotarem ®] | – |
